In publication PMC11025096, “Universal Glycosyltransferase Continuous Assay for Uniform Kinetics and Inhibition Database Development and Mechanistic Studies Illustrated on ST3GAL1, C1GALT1, and FUT1” (ACS Omega, 2024):
pIC50: −log10 of the molar value. One block for each molecule: values may come before it.

Experiments:
[1] = biological target: T1, CMK (cytidylate kinase) (Escherichia coli, UniProt P0A6I0); assay: coupled PK/LDH NADH fluorescence progress curves over CMP serial dilution; type: biochemical
T1 sequence (P0A6I0 1-227): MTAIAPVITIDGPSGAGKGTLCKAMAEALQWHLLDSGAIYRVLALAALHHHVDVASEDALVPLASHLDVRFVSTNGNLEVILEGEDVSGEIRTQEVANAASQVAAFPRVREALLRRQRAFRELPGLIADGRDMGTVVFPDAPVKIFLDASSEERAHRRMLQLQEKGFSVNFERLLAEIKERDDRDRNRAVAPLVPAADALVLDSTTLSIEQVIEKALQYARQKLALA

[2] = biological target: T2, FUT1 (Homo sapiens, UniProt P19526); assay: donor at fixed saturating concentration in UGC continuous coupled assay (NDK/PK/LDH); type: biochemical
T2 construct: pGEn2 construct expressed in HEK293F; tag removed with TEV protease
T2 sequence (P19526 1-365): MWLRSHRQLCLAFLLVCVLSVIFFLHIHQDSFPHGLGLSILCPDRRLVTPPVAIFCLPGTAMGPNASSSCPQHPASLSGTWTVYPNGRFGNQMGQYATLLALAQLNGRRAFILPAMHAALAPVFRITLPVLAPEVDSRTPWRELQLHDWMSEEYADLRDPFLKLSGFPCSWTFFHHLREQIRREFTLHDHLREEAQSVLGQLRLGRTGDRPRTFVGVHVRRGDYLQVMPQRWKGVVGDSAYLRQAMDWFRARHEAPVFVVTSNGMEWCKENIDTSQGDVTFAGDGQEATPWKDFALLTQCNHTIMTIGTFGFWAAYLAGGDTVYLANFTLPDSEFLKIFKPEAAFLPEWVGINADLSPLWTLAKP

[3] = biological target: T3, ST3GAL1 (Homo sapiens, UniProt Q11201); assay: UGC continuous coupled NADH fluorescence assay, […] min enzyme-inhibitor preincubation, dose response; type: biochemical
T3 construct: pGEn2 construct expressed in HEK293F; tag removed with TEV protease
T3 sequence (Q11201 1-340): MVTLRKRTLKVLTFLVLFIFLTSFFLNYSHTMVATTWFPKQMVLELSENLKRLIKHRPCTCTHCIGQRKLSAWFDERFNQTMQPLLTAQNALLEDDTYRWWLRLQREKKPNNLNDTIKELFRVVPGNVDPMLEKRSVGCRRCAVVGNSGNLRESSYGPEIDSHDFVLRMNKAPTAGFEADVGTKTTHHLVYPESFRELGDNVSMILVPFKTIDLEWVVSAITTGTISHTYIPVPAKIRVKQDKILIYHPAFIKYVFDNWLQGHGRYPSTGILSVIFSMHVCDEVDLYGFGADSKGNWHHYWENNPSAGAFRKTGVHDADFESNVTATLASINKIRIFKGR

[4] = biological target: T2, FUT1; assay: as above; type: biochemical
[5] = biological target: T4, C1GALT1 (Homo sapiens, UniProt Q9NS00); assay: biochemical; set-up: UGC coupled continuous assay, NADH fluorescence depletion, 30 min enzyme-inhibitor preincubation, 37 °C; conditions: acceptor 2x Km, donor 0.5x Km; rate at 5 min; extrapolated; read-out: Log IC50 (M) C1GALT1 (converted)
T4 construct: pGEn2 construct expressed in HEK293F (coexpressed with chaperone C1GALT1C1); tag removed with TEV protease
T4 sequence (Q9NS00 whole entry): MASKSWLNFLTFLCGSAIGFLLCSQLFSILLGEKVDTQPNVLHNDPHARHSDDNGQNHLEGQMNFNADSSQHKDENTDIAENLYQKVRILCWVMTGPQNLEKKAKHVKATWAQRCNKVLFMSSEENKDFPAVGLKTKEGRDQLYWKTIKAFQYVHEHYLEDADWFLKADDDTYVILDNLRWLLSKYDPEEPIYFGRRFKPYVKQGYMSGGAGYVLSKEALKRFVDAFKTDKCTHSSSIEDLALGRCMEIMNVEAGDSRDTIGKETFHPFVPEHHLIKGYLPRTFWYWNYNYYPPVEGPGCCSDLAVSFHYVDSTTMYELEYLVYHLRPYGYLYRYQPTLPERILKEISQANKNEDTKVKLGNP
Description: (§1) Soyasaponin 1 stock solution was prepared at 1.25 mM in 2% (v/v) Triton X-100 and 10% (v/v) DMSO. Inhibition assays were performed following a method similar to that used in the kinetics study. The master mixtures included all of the components except for the inhibitor and the enzyme. A 2-fold serial dilution from the inhibitor’s stock solution was prepared in a blank solution containing 2 and 10% (v/v) Triton X-100 and DMSO, respectively. The enzyme and the inhibitor were mixed, distributed to the wells, and preincubated for 30 min at 37 °C. A 10 min incubation period was also carried out at 37 °C for the master mixture, and the reaction was initiated by adding the master mixture to the wells. […] The effect of the activity percentage was calculated at each concentration of the inhibitor as follows [drawing 1] where SI, S100, S0 are the absolute values of the slopes from the progress curves of the reaction with inhibitor, […] respectively. IC50 and pIC50 (−log IC50 in molar concentration) values were calculated as depicted in Tables S3 and S4 (Supporting Information). Rates for the comparative dose response were calculated for each enzyme at the last time point where the uninhibited reaction maintained its linearity. […] Time and dose dependent inhibition was measured at varying concentrations of Soyasaponin 1. […]

[6] = biological target: T3, ST3GAL1; assay: biochemical; set-up: UGC coupled continuous assay, NADH fluorescence depletion, 30 min enzyme-inhibitor preincubation, 37 °C; conditions: acceptor and donor at Km; 20 min; read-out: Log IC50 (M) 20 Minutes (converted)
Description: as §1

[7] = biological target: T2, FUT1; assay: Michaelis-Menten kinetics, UGC continuous coupled assay (NDK/PK/LDH); type: biochemical
[8] = biological target: T3, ST3GAL1; assay: Michaelis-Menten kinetics, UGC continuous coupled assay (CMK/NDK/PK/LDH); type: biochemical

SMILES: Nc1ccn([C@@H]2O[C@H](COP(=O)(O)O)[C@@H](O)[C@H]2O)c(=O)n1 [CMP]
- coupled PK/LDH NADH fluorescence progress curves over CMP serial dilution [1]: the initial instant phosphorylation of CMP to CDP via CMK followed by a slower phosphorylation of CDP via PK

SMILES: C[C@@H]1O[C@H](OP(=O)(O)OP(=O)(O)OC[C@H]2O[C@@H](n3cnc4c(=O)[nH]c(N)nc43)[C@H](O)[C@@H]2O)[C@@H](O)[C@H](O)[C@@H]1O [GDP-Fuc]
- donor at fixed saturating concentration in UGC continuous coupled assay (NDK/PK/) [2]: Kinetics parameters for FUT1 were calculated with a saturation concentration of the donor GDP-Fuc and variable concentrations of the acceptors

- pIC50 [3]: 4.51
- pIC50 [4]: 4.28
- IC50 [5]: 0.000367 M
- IC50 [6]: 5.87e-05 M
SMILES: C[C@@H]1O[C@@H](O[C@H]2[C@H](O[C@H]3[C@H](O[C@H]4CC[C@@]5(C)[C@@H](CC[C@]6(C)[C@@H]5CC=C5[C@@H]7CC(C)(C)C[C@@H](O)[C@]7(C)CC[C@]56C)[C@@]4(C)CO)O[C@H](C(=O)O)[C@@H](O)[C@@H]3O)O[C@H](CO)[C@H](O)[C@@H]2O)[C@H](O)[C@H](O)[C@H]1O [Soyasaponin1]

- Michaelis-Menten kinetics, UGC continuous coupled assay (NDK/PK/LDH) [7]: 152 min^–1 (kcat)
SMILES: CC(=O)N[C@H]1[C@@H](OCc2ccccc2)O[C@H](CO)[C@H](O)[C@@H]1O[C@@H]1O[C@H](CO)[C@H](O)[C@H](O)[C@H]1O [T-Bn]

- Michaelis-Menten kinetics, UGC continuous coupled assay (CMK/NDK/PK/LDH) [8]: 195 min^–1 (kcat)
SMILES: CC(=O)N[C@H]1C(O)O[C@H](CO)[C@H](O)[C@@H]1O[C@@H]1O[C@H](CO)[C@H](O)[C@H](O)[C@H]1O (stereo partly drawn) [galacto-N-biose]

- Michaelis-Menten kinetics, UGC continuous coupled assay (NDK/PK/LDH) [7]: 357 min^–1 (kcat)
SMILES: CC(=O)N[C@H]1C(O)O[C@H](CO)[C@@H](O)[C@@H]1O[C@@H]1O[C@H](CO)[C@H](O)[C@H](O)[C@H]1O (stereo partly drawn) [lacto-N-biose]
